Results reported in patent publication US6734177B2, “Certain salts of discodermolide acid, pharmaceutical compositions containing them and their use in treating tumors” (Novartis AG, priority 2001, dated 2004).
Where two headings read alike, the source gives them in different places.

Experiments:
[1] = tested on: 1A9PTX22 ovarian carcinoma; experiment: Anchorage Dependent Growth Monolayer Assay (ADGMA), MTT, 3-day exposure; assay type: cell-based; settings: Homo sapiens, 1A9/ptx-22, 72 h, read-out: IC50 (average±S.E.M.) 1A9PTX22
From the text: (§1) As indicated above, all of the compounds of formula I are anti-tumor agents and are, therefore, useful in inhibiting the growth of various lymphomas, sarcomas, carcinomas, myelomas, and leukemia cell lines. […] This assay was adapted from the 60 cell line assay used by the National Cancer Institute (NCI) with the following modifications:
(§2) 1) four cell lines representative for the important tumor types, viz., MIP 101 colon carcinoma, HCT 116 colon carcinoma, 1A9 ovarian carcinoma and 1A9PTX22 ovarian carcinoma were utilized; and
(§3) 2) a tetrazolium derivative, viz., MTT, was utilized to determine cell density.
(§4) The ADGMA compares the number of viable cells following a 3-day exposure to a test compound relative to a number of cells present at the time the test compound was added. […] The absorbence at 540 nm (A540) of the formazan derivative is proportional to the number of viable cells. The IC50 for a test compound is the concentration of compound required to reduce the final cell number to 50% of the final control cell number. If cell proliferation is inhibited, the assay further defines compounds as cytostatic (cell number after 3-day compound incubation>cell number at time of compound addition) or cytotoxic (cell number after 3-day compound incubation<cell number at time of compound addition).
(§5) The HCT 116 colon carcinoma cell line was obtained from the American Type Culture Collection (ATCC, Rockville, Md.). The MIP 101 colon carcinoma was obtained from Dr. Robert Kramer (Bristol Meyers Squibb) and was previously described (Niles R M, Wilhelm S A, Steele G D JR, Burke B, Christensen T, Dexter D, O'Brien M J, Thomas P, Zamcheck N. Isolation and characterization of an undifferentiated human colon carcinoma cell line (MIP-101). Cancer Invest. 1987;5(6):545-52.). The 1A9 and the 1A9PTX22 ovarian tumor cell lines were obtained from Dr. Tito Fojo, Medicine Branch, Division of Clinical Sciences, National Cancer Institute, National Institutes of Health, Bethesda, Md. 20892. The 1A9 is a clone of the ovarian carcinoma cell line, A2780 (Giannakakou P, Sackett, D L, Kang Y -K, Zhan Z, Buters J T M, Fojo T, Poruchynsky M S. Paclitaxel-resistant human ovarian cancer cells have mutant β-tubulins that impaired paclitaxel-driven polymerization. J. Biol. Chem. 1997, 272(4):17118-17125). The 1A9PTX22 subline was isolated as an individual clone from the 1A9 cell line in a single step selection by exposure to 5 ng/mL paclitaxel in the presence of 5 μg/mL of verapamil. All cell lines were used between passages 4-20 following thawing. MIP 101 colon carcinoma, HCT 116 colon carcinoma, 1A9 ovarian carcinoma and 1A9PTX22 ovarian carcinoma cell lines are maintained and plated in RPMI 1640 medium containing 10% fetal bovine serum.
(§6) Cells are trypsinized and counted using hemacytometer to determine cell concentrations. Cells were then plated in their respective maintenance media (200 μL/well) in 96-well plates at the following concentrations: MIP 101, 2000 cells/well, HCT 116, 2000 cells/well, 1A9, 10000 cells/well, and 1A9PTX22, 10000 cells/well. […] Initial cell densities, assayed one day after plating, are roughly 0.10-0.20 A540 absorbence units greater than the media blank. Ninety six well plates were seeded on day 0 and the test compounds are added on day 1. A “time 0” plate was created that received media only in row A and one cell line/row in rows B-E. The “time 0” plate was processed 24 hours after plating (at the time when drugs were added to experimental plates), as follows: To each well 5 microliters of the MTT stock solution (0.5 mg/ml in PBS) was added to each well and then incubated for three hours at 37 degrees C., 5% CO2, in a humidified environment. Media was then carefully and completely removed. Plates were allowed to dry in the dark. DMSO (dimethylsulfoxide) was added to each well (100 μl/well) and plates were placed on an orbital shaker for 2 hours. […]

1A9 ovarian carcinoma = experiment: as above; assay type: cell-based; settings: Homo sapiens, read-out: IC50 (average±S.E.M.) 1A9
From the text: as §1, §2, §3, §4, §5, §6

HCT 116 colon carcinoma = experiment: as above; assay type: cell-based; settings: Homo sapiens, read-out: IC50 (average±S.E.M.) HCT116
From the text: as §1, §2, §3, §4, §5, §6

MIP 101 colon carcinoma = experiment: as above; assay type: cell-based; settings: Homo sapiens, 72 h, read-out: IC50 (average±S.E.M.) MIP101
From the text: as §1, §2, §3, §4, §5, §6

[2] = Body weight change of athymic nude mice in the hollow fiber model; assay type: in vivo; settings: Paclitaxel 15 mg/kg i.v. daily for 5 days, Ex. 1 45 mg/kg i.v. once; for Δ Mean % Body Weight, Exp. 1: Experiment 1; for Δ Mean % Body Weight, Exp. 2: Experiment 2
Method: Outbred athymic (nu/nu) female mice (“Chrls:Athymic Nude-nu”, Charles River Laboratories, Wilmington, Mass.) were anesthetized with ip injections of Ketamine/Xylazine (150 mg/kg, and 12 mg/kg body weight, respectively). For the subcutaneous implantation an 11-gauge trocar containing one or two hollow fibers was inserted through an incision made with scissors at the nape of the neck of an animal, and fibers were released by retracting the trocar while depressing the plunger. This procedure was repeated until all four hollow fibers were implanted. One wound clip was used to close the skin incision. After the surgery each animal received a single, subcutaneous injection of 0.4 mg/kg butorphenol to relieve any potential pain. Animals recovered from the anesthesia on a heating pad, before returning to their cages.
One day after the implantation (4 hollow fibers/animal, each hollow fiber containing one cell line: HCT 116, MIP 101, 1A9, and 1A9PTX22) animals were randomly sorted into five groups of six mice/group. The first group was sacrificed, hollow fibers were retrieved, and processed according to a published procedure, to determine the number of viable cells in each fiber (T0.)
The remaining groups were treated as follows:
Group 1: Example 1, 45 mg/kg, iv, once.
Group 2: Vehicle for Example 1 (16.7% Cremophor EL, 8.3% ethanol, 75% D5W), iv, once.
Group 3: Paclitaxel, 15 mg/kg, iv, daily for 5 days.
Group 4: Vehicle for paclitaxel (12.5% Cremophor EL, 12.5% ethanol, 75% D5W) iv, daily for 5 days.
On day 7 all animals were sacrificed, and hollow fibers were retrieved and processed according to a published procedure, to determine the number of viable cells in each fiber (T—for fibers from animals treated with experimental compounds, C—for fibers from animals treated with corresponding vehicles). Antitumor activity was expressed as % Mean ΔT/Mean ΔC [comparing cell growth for treatment group to vehicle control group, where % Mean ΔT/Mean ΔC=(Mean T−Mean T0/Mean C−Mean T0)×100%]. Regressions were calculated using the formula: (1−Mean T/Mean T0)×100%. Statistical significance of the results was uniformly evaluated using a two-tailed Student's t-test, as recommended by a statistician, following analysis of our representative experiments (Colin Goodal, statistical consultant to Novartis, personal communication).

1A9PTX22 cell line = settings: 1A9PTX22 vs parental 1A9; cited from earlier work

IC50 ([1]; 1A9PTX22 cells, 3-day exposure, MTT) | IC50 (1A9 ovarian carcinoma; 72 h, 1A9 cells, 3-day exposure, MTT) | IC50 (HCT 116 colon carcinoma; 72 h, HCT 116 cells, 3-day exposure, MTT) | IC50 (MIP 101 colon carcinoma; MIP 101 cells, 3-day exposure, MTT) | Compound | IC50 [1] | IC50 (1A9 ovarian carcinoma; 1A9, 72 h) | IC50 (HCT 116 colon carcinoma; HCT-116, 72 h) | IC50 (MIP 101 colon carcinoma) | Δ Mean % Body Weight, Exp. 1 [2] | Δ Mean % Body Weight, Exp. 2 [2] | Resistance to paclitaxel of 1A9PTX22 relative to parental 1A9 (1A9PTX22 cell line)
 |  |  |  | C=C/C=C\[C@H](C)[C@H](OC(N)=O)[C@@H](C)[C@@H](O)[C@@H](C)C/C(C)=C\[C@H](C)[C@@H](O)[C@@H](C)/C=C\[C@@H](O)C[C@H](O)[C@H](C)[C@H](O)[C@@H](C)C(=O)[O-].[Na+] [Ex. 1, (2R,3S,4S,5S,7S,8Z,10S,11S,12S,13Z,16S,17S,18S,19S,20S,21Z)-19-[(aminocarbonyl)oxy]-3,5,7,11,17-pentahydroxy-2,4,10,12,14,16,18,20-octamethyl-8,13,21,23-tetracosatetraenoic acid, sodium salt] | 200 ± 90 nM | 100 ± 40 nM | 50 ± 20 nM | 300 ± 10 nM | Exp. 1: None | Exp. 2: None | 
1 ± 1 nM | 47 ± 7 nM | 0.3 ± 0.2 nM | 200 ± 60 nM | CC(=O)O[C@H]1C(=O)[C@@]2(C)[C@H]([C@H](OC(=O)c3ccccc3)[C@]3(O)C[C@H](OC(=O)[C@H](O)[C@@H](NC(=O)c4ccccc4)c4ccccc4)C(C)=C1C3(C)C)[C@]1(OC(C)=O)CO[C@@H]1C[C@@H]2O [paclitaxel] |  |  |  |  | Exp. 1: None | Exp. 2: None | 24 fold
